Biological target: BRD4 (Homo sapiens, UniProt O60885)
Assay: PROTAC-induced BRD4 degradation in HCT116 cells, immunoblot, […] h
Format: cell-based

Compound `Cc1ncsc1-c1ccc(CNC(=O)[C@@H]2C[C@@H](O)CN2C(=O)[C@@H](NC(=O)COCCCCOCCCOc2ccc(NC(=O)C[C@@H]3N=C(c4ccc(Cl)cc4)c4c(sc(C)c4C)-n4c(C)nnc43)cc2)C(C)(C)C)cc1` [A743] has a DC50 of 23.1 nM.

Source: publication PMC6318015 (Cancer research, 2018)
